Experimental data: ChEMBL document CHEMBL2169819, “Synthesis and biological evaluation of 2-amino-3-(4-chlorobenzoyl)-4-[(4-arylpiperazin-1-yl)methyl]-5-substituted-thiophenes. effect of the 5-modification on allosteric enhancer activity at the A1 adenosine receptor” (J Med Chem, 2012)

molecular target: T1, Adenosine receptor A1 (Homo sapiens) (UniProt P30542); assay: Allosteric enhancing activity at human adenosine A1 receptor expressed in CHO cells assessed as inhibition of forskolin-stimulated cAMP accumulation at 100 nM incubated for 10 mins prior to forskolin-stimulation measured after 5 mins by competition protein binding assay in presence of 2-chloro-N6-cyclopentyladenosine; type: functional, cell-based
T1 sequence (whole entry): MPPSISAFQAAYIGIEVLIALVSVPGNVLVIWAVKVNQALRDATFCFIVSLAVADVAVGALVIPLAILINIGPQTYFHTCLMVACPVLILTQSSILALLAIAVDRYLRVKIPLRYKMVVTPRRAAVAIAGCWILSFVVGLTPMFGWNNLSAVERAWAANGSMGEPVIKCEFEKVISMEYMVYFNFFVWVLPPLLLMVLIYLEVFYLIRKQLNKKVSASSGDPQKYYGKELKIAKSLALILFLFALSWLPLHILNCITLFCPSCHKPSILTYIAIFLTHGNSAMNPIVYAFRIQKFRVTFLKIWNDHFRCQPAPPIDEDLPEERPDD

inhibition	Compound
41%	Nc1sc(Br)c(CN2CCN(c3ccc(F)cc3)CC2)c1C(=O)c1ccc(Cl)cc1
55%	CCc1sc(N)c(C(=O)c2ccc(Cl)cc2)c1CN1CCN(c2ccc(F)cc2)CC1
40%	Cc1sc(N)c(C(=O)c2ccc(Cl)cc2)c1CN1CCN(c2ccc(Cl)cc2)CC1

Continued, compound first:

Compound	inhibition
Nc1sc(-c2ccccc2)c(CN2CCN(c3ccccc3)CC2)c1C(=O)c1ccc(Cl)cc1	74%
Nc1sc(-c2ccc(Cl)cc2)c(CN2CCN(c3ccc(OC(F)(F)F)cc3)CC2)c1C(=O)c1ccc(Cl)cc1	72%
Cc1sc(N)c(C(=O)c2ccc(Cl)cc2)c1CN1CCN(c2cccc(C(F)(F)F)c2)CC1	52%
Cc1sc(N)c(C(=O)c2ccc(Cl)cc2)c1CN1CCN(c2ccc(Cl)c(C(F)(F)F)c2)CC1	48%

molecular target: T1, Adenosine receptor A1 (Homo sapiens); assay: Displacement of [3H]DPCPX from human adenosine A1 receptor expressed in CHO cells at 10 uM after 120 mins by scintillation counting; type: cell-based

inhibition	Compound
< 12%	Nc1sc(Br)c(CN2CCN(c3ccc(F)cc3)CC2)c1C(=O)c1ccc(Cl)cc1
< 12%	CCc1sc(N)c(C(=O)c2ccc(Cl)cc2)c1CN1CCN(c2ccc(F)cc2)CC1
< 12%	Cc1sc(N)c(C(=O)c2ccc(Cl)cc2)c1CN1CCN(c2ccc(Cl)cc2)CC1

Continued, compound first:

Compound	inhibition
Nc1sc(-c2ccccc2)c(CN2CCN(c3ccccc3)CC2)c1C(=O)c1ccc(Cl)cc1	< 12%
Nc1sc(-c2ccc(Cl)cc2)c(CN2CCN(c3ccc(OC(F)(F)F)cc3)CC2)c1C(=O)c1ccc(Cl)cc1	< 12%
Cc1sc(N)c(C(=O)c2ccc(Cl)cc2)c1CN1CCN(c2cccc(C(F)(F)F)c2)CC1	< 12%
Cc1sc(N)c(C(=O)c2ccc(Cl)cc2)c1CN1CCN(c2ccc(Cl)c(C(F)(F)F)c2)CC1	< 12%

molecular target: T2, Adenosine receptor A3 (Homo sapiens) (UniProt P0DMS8); assay: Displacement of [3H]MRE-3008-F20 from human adenosine A3 receptor expressed in CHO cells at 10 uM after 120 mins by scintillation counting; type: cell-based
T2 sequence (whole entry): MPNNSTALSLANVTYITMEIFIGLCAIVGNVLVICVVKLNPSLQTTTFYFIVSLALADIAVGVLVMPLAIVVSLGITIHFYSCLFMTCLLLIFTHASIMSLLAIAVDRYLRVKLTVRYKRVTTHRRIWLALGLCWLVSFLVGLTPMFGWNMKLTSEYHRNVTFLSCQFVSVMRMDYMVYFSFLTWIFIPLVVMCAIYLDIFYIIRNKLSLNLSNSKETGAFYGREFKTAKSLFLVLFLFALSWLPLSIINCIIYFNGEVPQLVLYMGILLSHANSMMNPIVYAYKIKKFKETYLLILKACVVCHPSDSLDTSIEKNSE

inhibition	Compound
< 12%	Nc1sc(Br)c(CN2CCN(c3ccc(F)cc3)CC2)c1C(=O)c1ccc(Cl)cc1
< 12%	CCc1sc(N)c(C(=O)c2ccc(Cl)cc2)c1CN1CCN(c2ccc(F)cc2)CC1
< 12%	Cc1sc(N)c(C(=O)c2ccc(Cl)cc2)c1CN1CCN(c2ccc(Cl)cc2)CC1

More lines, now with the values behind:

Compound	inhibition
Nc1sc(-c2ccccc2)c(CN2CCN(c3ccccc3)CC2)c1C(=O)c1ccc(Cl)cc1	< 12%
Nc1sc(-c2ccc(Cl)cc2)c(CN2CCN(c3ccc(OC(F)(F)F)cc3)CC2)c1C(=O)c1ccc(Cl)cc1	< 12%
Cc1sc(N)c(C(=O)c2ccc(Cl)cc2)c1CN1CCN(c2cccc(C(F)(F)F)c2)CC1	< 12%
Cc1sc(N)c(C(=O)c2ccc(Cl)cc2)c1CN1CCN(c2ccc(Cl)c(C(F)(F)F)c2)CC1	< 12%

molecular target: T1, Adenosine receptor A1 (Homo sapiens); assay: Allosteric enhancing activity at human adenosine A1 receptor expressed in CHO cells assessed as increase in [3H]-2-chloro-N6-cyclopentyladenosine Bmax at 10 uM after 90 mins relative to control; type: cell-based

fold change (FC)	Compound
4.4	Nc1sc(Br)c(CN2CCN(c3ccc(F)cc3)CC2)c1C(=O)c1ccc(Cl)cc1
6.7	CCc1sc(N)c(C(=O)c2ccc(Cl)cc2)c1CN1CCN(c2ccc(F)cc2)CC1
4.7	Cc1sc(N)c(C(=O)c2ccc(Cl)cc2)c1CN1CCN(c2ccc(Cl)cc2)CC1

Continued, compound first:

Compound	fold change (FC)
Nc1sc(-c2ccccc2)c(CN2CCN(c3ccccc3)CC2)c1C(=O)c1ccc(Cl)cc1	11.5
Nc1sc(-c2ccc(Cl)cc2)c(CN2CCN(c3ccc(OC(F)(F)F)cc3)CC2)c1C(=O)c1ccc(Cl)cc1	10.7
Cc1sc(N)c(C(=O)c2ccc(Cl)cc2)c1CN1CCN(c2cccc(C(F)(F)F)c2)CC1	6.2
Cc1sc(N)c(C(=O)c2ccc(Cl)cc2)c1CN1CCN(c2ccc(Cl)c(C(F)(F)F)c2)CC1	5.1

molecular target: Adenosine receptor A2a (Homo sapiens) (UniProt P29274); assay: Displacement of [3H]ZM241385 from human adenosine A2A receptor expressed in CHO cells at 10 uM after 120 mins by scintillation counting; type: cell-based
Sequence (P29274 whole entry): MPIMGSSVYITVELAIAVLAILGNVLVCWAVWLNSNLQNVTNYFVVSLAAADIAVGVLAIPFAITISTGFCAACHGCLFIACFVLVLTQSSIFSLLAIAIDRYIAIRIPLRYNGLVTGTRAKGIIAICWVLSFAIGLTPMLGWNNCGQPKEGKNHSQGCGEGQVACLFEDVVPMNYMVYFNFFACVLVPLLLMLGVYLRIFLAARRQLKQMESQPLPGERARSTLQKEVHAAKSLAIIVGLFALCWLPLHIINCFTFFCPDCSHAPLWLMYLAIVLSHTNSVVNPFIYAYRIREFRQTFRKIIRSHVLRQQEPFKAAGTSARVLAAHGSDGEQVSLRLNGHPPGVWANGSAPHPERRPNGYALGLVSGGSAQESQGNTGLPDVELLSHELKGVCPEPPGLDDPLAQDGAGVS

inhibition	Compound
< 12%	Nc1sc(Br)c(CN2CCN(c3ccc(F)cc3)CC2)c1C(=O)c1ccc(Cl)cc1
< 12%	CCc1sc(N)c(C(=O)c2ccc(Cl)cc2)c1CN1CCN(c2ccc(F)cc2)CC1
< 12%	Cc1sc(N)c(C(=O)c2ccc(Cl)cc2)c1CN1CCN(c2ccc(Cl)cc2)CC1

The next lines start with the compound.

Compound	inhibition
Nc1sc(-c2ccccc2)c(CN2CCN(c3ccccc3)CC2)c1C(=O)c1ccc(Cl)cc1	< 12%
Nc1sc(-c2ccc(Cl)cc2)c(CN2CCN(c3ccc(OC(F)(F)F)cc3)CC2)c1C(=O)c1ccc(Cl)cc1	< 12%
Cc1sc(N)c(C(=O)c2ccc(Cl)cc2)c1CN1CCN(c2cccc(C(F)(F)F)c2)CC1	< 12%
Cc1sc(N)c(C(=O)c2ccc(Cl)cc2)c1CN1CCN(c2ccc(Cl)c(C(F)(F)F)c2)CC1	< 12%

molecular target: T1, Adenosine receptor A1 (Homo sapiens); assay: Allosteric enhancing activity at human adenosine A1 receptor expressed in CHO cells assessed as inhibition of forskolin-stimulated cAMP accumulation at 10 uM incubated for 10 mins prior to forskolin-stimulation measured after 5 mins by competition protein binding assay; type: functional, cell-based

inhibition	Compound
46%	Nc1sc(Br)c(CN2CCN(c3ccc(F)cc3)CC2)c1C(=O)c1ccc(Cl)cc1
63%	CCc1sc(N)c(C(=O)c2ccc(Cl)cc2)c1CN1CCN(c2ccc(F)cc2)CC1
44%	Cc1sc(N)c(C(=O)c2ccc(Cl)cc2)c1CN1CCN(c2ccc(Cl)cc2)CC1

More lines, now with the values behind:

Compound	inhibition
Nc1sc(-c2ccccc2)c(CN2CCN(c3ccccc3)CC2)c1C(=O)c1ccc(Cl)cc1	79%
Nc1sc(-c2ccc(Cl)cc2)c(CN2CCN(c3ccc(OC(F)(F)F)cc3)CC2)c1C(=O)c1ccc(Cl)cc1	78%
Cc1sc(N)c(C(=O)c2ccc(Cl)cc2)c1CN1CCN(c2cccc(C(F)(F)F)c2)CC1	51%
Cc1sc(N)c(C(=O)c2ccc(Cl)cc2)c1CN1CCN(c2ccc(Cl)c(C(F)(F)F)c2)CC1	52%

molecular target: T1, Adenosine receptor A1 (Homo sapiens); assay: Allosteric enhancing activity at human adenosine A1 receptor expressed in CHO cells assessed as increase in CCPA-induced [3H]DPCPX displacement at 10 uM after 90 mins relative to control; type: cell-based

Ratio Ki	Compound
4.1	Nc1sc(Br)c(CN2CCN(c3ccc(F)cc3)CC2)c1C(=O)c1ccc(Cl)cc1
3.8	CCc1sc(N)c(C(=O)c2ccc(Cl)cc2)c1CN1CCN(c2ccc(F)cc2)CC1
4.2	Cc1sc(N)c(C(=O)c2ccc(Cl)cc2)c1CN1CCN(c2ccc(Cl)cc2)CC1

The remaining lines, values behind:

Compound	Ratio Ki
Nc1sc(-c2ccccc2)c(CN2CCN(c3ccccc3)CC2)c1C(=O)c1ccc(Cl)cc1	8.3
Nc1sc(-c2ccc(Cl)cc2)c(CN2CCN(c3ccc(OC(F)(F)F)cc3)CC2)c1C(=O)c1ccc(Cl)cc1	8.9
Cc1sc(N)c(C(=O)c2ccc(Cl)cc2)c1CN1CCN(c2cccc(C(F)(F)F)c2)CC1	5.7
Cc1sc(N)c(C(=O)c2ccc(Cl)cc2)c1CN1CCN(c2ccc(Cl)c(C(F)(F)F)c2)CC1	4.6
